The values below are quoted from earlier work in PubChem BioAssay AID1259410 (Chemical Carcinogenesis Research Information System (CCRIS), 2018).

The structures appear in SMILES notation.

The subject of this data set is rodent tumor promotion studies, tumor incidence. Briefly: CCRIS tumor promotion studies.

For `CCC(CC)C(=O)NC(N)=O`, the outcome (Carcinogen: N-NITROSODIETHYLAMINE, 55-18-5, Doses [Carcinogen]: 75 MG IN STERILE SALINE ONCE, Doses [Promoter]: 0, 341 PPM IN DIET BEGINNING 2 WK POST CARCINOGEN DOSE AND CONTINUING FOR DURATION OF STUDY (STUDY DURATION: 78 WK), Route [Carcinogen]: INTRAPERITONEAL, Route [Promoter]: ORAL, Species: RAT, Strain/Sex: F344/MALE) was “liver: hepatocellular adenoma; kidney: renal tubular cell adenoma or carcinoma”.
For the compound `CCC(=O)O[C@H]1CC[C@H]2[C@@H]3CCC4=CC(=O)CC[C@]4(C)[C@H]3CC[C@]12C`, the outcome (Carcinogen: 3,2'-DIMETHYL-4-AMINOBIPHENYL, 13394-86-0, Doses [Carcinogen]: 50 MG/KG 1/2 WK FOR 20 WK, Doses [Promoter]: CONTINUOUS ADMINISTRATION TO CASTRATED RATS FOR 40 WK, IMPLANTS REPLACED AT 6-WK INTERVALS (STUDY DURATION: 60 WK), Route [Carcinogen]: SUBCUTANEOUS, Route [Promoter]: SUBCUTANEOUS IMPLANT, Species: RAT, Strain/Sex: F344/MALE) is listed as “prostate: carcinoma; seminal vesicle: carcinoma”; the outcome (Carcinogen: 3,2'-DIMETHYL-4-AMINOBIPHENYL, 13394-86-0, Doses [Carcinogen]: 50 MG/KG 1/2 WK FOR A TOTAL OF 10 INJECTIONS, Doses [Promoter]: 0, 40 MG IN SILASTIC TUBES IMPLANTED 1 WK PRIOR TO CARCINOGEN TREATMENT AND CONTINUING FOR DURATION OF STUDY WITH REPLAC, Route [Carcinogen]: SUBCUTANEOUS, Route [Promoter]: SUBCUTANEOUS IMPLANT, Species: RAT, Strain/Sex: F344/MALE) was “dorsolateral prostate: carcinoma; seminal vesicle: carcinoma”; the outcome (Carcinogen: 3,2'-DIMETHYL-4-AMINOBIPHENYL, 13394-86-0, Doses [Carcinogen]: 50 MG/KG 1/2 WK FOR A TOTAL OF 10 INJECTIONS, Doses [Promoter]: 0, 100 MG/KG 1/D FOR 3 D PRECEDING EACH CARCINOGEN DOSE (STUDY DURATION: 56 WK), Route [Carcinogen]: SUBCUTANEOUS, Route [Promoter]: SUBCUTANEOUS, Species: RAT, Strain/Sex: F344/MALE) is on record as “skin/subcutis: tumor”; the outcome (Carcinogen: 3,2'-DIMETHYL-4-AMINOBIPHENYL, 13394-86-0, Doses [Carcinogen]: 50 MG/KG 1/2 WK FOR A TOTAL OF 10 INJECTIONS, Doses [Promoter]: 0, 100 MG/KG 1/D FOR 3 D PRECEDING EACH CARCINOGEN DOSE THEN 0, 40 MG IN SILASTIC TUBES IMPLANTED POST LAST CARCINOGEN D, Doses [Promoter]: 0, 100 MG/KG 1/D FOR 3 D PRECEDING EACH CARCINOGEN DOSE THEN 0, 40 MG IN SILASTIC TUBES IMPLANTED POST LAST CARCINOGEN D, Route [Carcinogen]: SUBCUTANEOUS, Route [Promoter]: SUBCUTANEOUS, Species: RAT, Strain/Sex: F344/MALE) was “dorsolateral prostate: carcinoma; seminal vesicles: carcinoma”; the outcome (Carcinogen: 3,2'-DIMETHYL-4-AMINOBIPHENYL, 13394-86-0, Doses [Carcinogen]: 50 MG/KG BW 1/2 WK FOR 10 DOSES, Doses [Promoter]: 20, 40 MG/SILASTIC TUBE IMPLANT REPLACED AT 6 WK INTERVALS (STUDY DURATION: 60 WK), Route [Carcinogen]: SUBCUTANEOUS, Route [Promoter]: SUBCUTANEOUS, Species: RAT, Strain/Sex: F344/MALE) is given as “prostate (anterior): carcinoma; seminal vesicles: carcinoma”; the outcome (Carcinogen: 3,2'-DIMETHYL-4-AMINOBIPHENYL, 58109-32-3, Doses [Carcinogen]: 50 MG/KG BW 1/2 WK FOR 20 WK, Doses [Promoter]: 0, 40 MG BEGINNING POST CARCINOGEN TREATMENT AND RENEWED AT 6 WK INTERVALS FOR 40 WK (STUDY DURATION: 60 WK), Route [Carcinogen]: SUBCUTANEOUS, Route [Promoter]: SUBCUTANEOUS IMPLANT, Species: RAT, Strain/Sex: F344/MALE) was “seminal vesicles: carcinoma”. Besides, the outcome is “mammary gland: tumor” (Carcinogen: 17 BETA-ESTRADIOL [50-28-2], Doses [Carcinogen]: 22 MG AT 3 MO OF AGE ONCE/3 MO FOR 1 YR, Doses [Promoter]: 0, 60 MG AT 3 MO OF AGE ONCE/3 MO FOR 1 YR (STUDY DURATION: 1 YR), Route [Carcinogen]: SUBCUTANEOUS IMPLANT, Route [Promoter]: SUBCUTANEOUS IMPLANT, Species: RAT, Strain/Sex: NOBLE/FEMALE (?,18)/(?/15)); “mammary gland: tumor” (Carcinogen: 17 BETA-ESTRADIOL, 50-28-2, Doses [Carcinogen]: 22 MG AT 3 MO OF AGE ONCE EVERY 3 MO FOR 1 YR, Doses [Promoter]: 0, 120 MG AT 3 MO OF AGE, 1/3 MO FOR 1 YR (STUDY DURATION: 1 YR), Route [Carcinogen]: SUBCUTANEOUS IMPLANT, Route [Promoter]: SUBCUTANEOUS IMPLANT, Species: RAT, Strain/Sex: NOBLE/FEMALE); “urinary bladder: tumor” (Carcinogen: N-BUTYL-N-(4-HYDROXYBUTYL)NITROSAMINE [3817-11-6], Doses [Carcinogen]: 0.05% IN DRINKING WATER FOR 18 WK (STUDY DURATION: 18 WK), Doses [Promoter]: 0, 3 MG/KG BW FOR 18 WK (STUDY DURATION: 18 WK), Route [Carcinogen]: ORAL, Route [Promoter]: INTRAMUSCULAR, Species: MOUSE, Strain/Sex: C57B6/6/MALE); “prostate/seminal vesicles: tumor” (Carcinogen: N-METHYL-N-NITROSOUREA, 684-93-5, Doses [Carcinogen]: 30 MG/KG BW ONCE, Doses [Promoter]: 0, 25 MG IMPLANT CHANGED AT 2 MO INTERVALS FOR A TOTAL OF 3 TIMES (STUDY DURATION: 14 MO), Route [Carcinogen]: INTRAVENOUS, Route [Promoter]: SUBCUTANEOUS IMPLANT, Species: RAT, Strain/Sex: LOBUND-WISTAR/MALE); “prostate: adenocarcinoma” (Carcinogen: N-METHYL-N-NITROSOUREA, 684-93-5, Doses [Carcinogen]: 30 MG/KG ONCE, Doses [Promoter]: 0, 50 MG IN SILASTIC MEMBRANE IMPLANT BEGINNING 1 MO POST CARCINOGEN DOSE AND REPEATED AT INTERVALS OF 2 MO FOR A TOTAL, Route [Carcinogen]: INTRAVENOUS, Route [Promoter]: SUBCUTANEOUS IMPLANT, Species: RAT, Strain/Sex: LOBUND-WISTAR/MALE); “prostate: adenocarcinoma” (Carcinogen: N-METHYL-N-NITROSOUREA, 684-93-5, Doses [Carcinogen]: 30 MG/KG ONCE, Doses [Promoter]: 0, 50 MG IN SILASTIC MEMBRANE IMPLANT BEGINNING 1 WK POST CARCINOGEN DOSE AND REPEATED AT INTERVALS OF 2 MO FOR A TOTAL, Route [Carcinogen]: INTRAVENOUS, Route [Promoter]: SUBCUTANEOUS IMPLANT, Species: RAT, Strain/Sex: LOBUND-WISTAR/MALE). Besides, the outcome is, setting by setting: (Carcinogen: N-METHYL-N-NITROSOUREA, 684-93-5, Doses [Carcinogen]: 30 MG/KG ONCE, Doses [Promoter]: 0, 50 MG IN SILASTIC MEMBRANE IMPLANT BEGINNING 1 WK POST CARCINOGEN DOSE FOLLOWED BY SECOND IMPLANT 2 MO LATER (STUDY D, Route [Carcinogen]: INTRAVENOUS, Route [Promoter]: SUBCUTANEOUS IMPLANT, Species: RAT, Strain/Sex: LOBUND-WISTAR/MALE) “prostate: adenocarcinoma”; (Carcinogen: N-METHYL-N-NITROSOUREA, 684-93-5, Doses [Carcinogen]: 30 MG/KG ONCE, Doses [Promoter]: 0, 50 MG IN SILASTIC MEMBRANE IMPLANT BEGINNING 2 MO POST CARCINOGEN DOSE AND REPEATED AT INTERVALS OF 2 MO FOR A TOTAL, Route [Carcinogen]: INTRAVENOUS, Route [Promoter]: SUBCUTANEOUS IMPLANT, Species: RAT, Strain/Sex: LOBUND-WISTAR/MALE) “prostate: adenocarcinoma”; (Carcinogen: N-METHYLNITROSOUREA, 684-93-5, Doses [Carcinogen]: 15 MG/KG/BW 1/4 WK FOR 5 INJECTIONS EACH FOLLOWING 2 WK PRETREATMENT WITH DIETARY ETHINYL ESTRADIOL, Doses [Promoter]: 0, 40 MG IMPLANTS REPLACED AT 6 WK INTERVALS FOR 40 WK IN RATS MAINTAINED ON DIETS WITH OR WITHOUT HIGH FAT CONTENT (20%, Route [Carcinogen]: INTRAVENOUS, Route [Promoter]: SUBCUTANEOUS IMPLANT, Species: RAT, Strain/Sex: F344/MALE) “seminal vesicles: carcinoma; congulating glands: carcinoma”; (Carcinogen: N-NITROSOBIS(2-OXOPROPYL)AMINE, 60599-38-4, Doses [Carcinogen]: 20 MG/KG 1/4 WK FOR 5 INJECTIONS EACH FOLLOWING 2 WK PRETREATMENT WITH DIETARY ETHINYL ESTRADIOL, Doses [Promoter]: 0, 40 MG IMPLANTS REPLACED AT 6 WK INTERVALS FOR 40 WK IN RATS MAINTAINED ON DIETS WITH OR WITHOUT HIGH FAT CONTENT (20%, Route [Carcinogen]: SUBCUTANEOUS, Route [Promoter]: SUBCUTANEOUS IMPLANT, Species: RAT, Strain/Sex: F344/MALE) “seminal vesicles: carcinoma”.
`CC1=CC[C@H]2C[C@@H]1C2(C)C`: the outcome (Carcinogen: 7,12-DIMETHYLBENZ(A)ANTHRACENE, Doses [Carcinogen]: TOP, Route [Carcinogen]: DERMAL, Route [Promoter]: DERMAL, Species: MOUSE) is “integumentary system (skin)”.
